≈ marks a conversion by molar mass, not a printed value.
Legend:
[1] = test system: Breast cancer cell line; assay: Tested for anticancer activity against human breast cancer; type: functional, cell-based
[2] = test system: Ovarian cancer cell line; assay: Tested for anticancer activity against human ovarian cancer; type: functional, cell-based
[3] = test system: Melanoma cell; assay: Tested for anticancer activity against human melanoma; type: functional, cell-based
[4] = Tested for anticancer activity against human lung cancer (NSCLC); type: functional
[5] = species: Homo sapiens; assay: Tested against normal human peripheral blood dendritic cells, expressed as IC50; type: functional, cell-based
[6] = species: Rattus norvegicus; assay: Tested for diffusion of compound into rat skin receptor fluid, at a dose of 0.05 mg; type: functional
[7] = Homo sapiens, Melanoma cell, read-out: IC50

Row | SMILES | IC50 [1] [µg/mL] | IC50 [2] [µg/mL] | IC50 [3, 7] [µg/mL] | IC50 [4] [µg/mL] | IC50 [5] [µg/mL] | IC50 ([3]; melanoma cell) [µg/mL] | Activity [6] [ng/mL]
1 | O=[N+]([O-])c1ccc(NN=C(c2ccc(O)cc2)c2ccc(O)cc2)c([N+](=O)[O-])c1 [SIVIFENE] | > 10 | 9 (≈ 22.8 µM) | > 10 | 4 (≈ 10.1 µM) | > 10 | – | –
2 | CN(C)c1ccc2nc3ccc(N(C)C)cc3[s+]c2c1.O=[N+]([O-])c1ccc(NN=C(c2ccc(O)cc2)c2ccc(O)cc2)c([N+](=O)[O-])c1.[Cl-] | 2.5 | 2 | – | 2 | > 10 | 1 | 9
3 | COc1cccc2c1C(=O)c1c(O)c3c(c(O)c1C2=O)C[C@@](O)(C(=O)CO)C[C@@H]3O[C@H]1C[C@H](N)[C@H](O)[C@H](C)O1 [DOXORUBICIN] | 0.9 (≈ 1.66 µM) | – | > 5 | > 30 | – | – | –
4 | Cc1cc2nc3ccc(N(C)C)cc3[s+]c2cc1N.O=[N+]([O-])c1ccc(NN=C(c2ccc(O)cc2)c2ccc(O)cc2)c([N+](=O)[O-])c1.[Cl-] | 1.5 | – | 4 | 3 | – | – | –
5 | Nc1ccc2nc3ccc(N)cc3[s+]c2c1.O=[N+]([O-])c1ccc(NN=C(c2ccc(O)cc2)c2ccc(O)cc2)c([N+](=O)[O-])c1.[Cl-] | 0.9 | 0.2 | – | > 10 | – | – | –

— ChEMBL document CHEMBL1134421, “Anticancer properties for 4,4'-dihydroxybenzophenone-2,4-dinitrophenylhydrazone (A-007)/3,7-diaminophenothiazin-5-ium double salts” (Bioorg Med Chem Lett, 2001)
